Measured values from patent publication US11413328B2, “Methods for treating inflammatory conditions of the lungs” (priority 2016, dated 2022).

Key:
[1] = test system: Dextran Sodium Sulphate (DSS) induced colitis model; assay: Acute 10-day DSS induced colitis model (Example 7); format: in vivo, mice; details: Pred 1 mg/kg orally daily
Protocol: To determine and assess the anti-inflammatory effect of “hBD-2-albumin fusion C-terminal” in an acute 10-day Dextran Sodium Sulphate (DSS) induced colitis model in mice.
“hBD-2-albumin C-terminal” was administered intravenously via the tail vein or subcutaneously with the use of a sterile 25G needle in a dosing volume of 10 ml/kg body weight. The animals received 1 dose daily for 10 […] days. The active control Prednisolone (Pred) was given orally by gavage at a dose of 1 mg/kg in a dosing volume of 10 ml/kg body weight OD.

[2] = test system: murine house dust mite/Freunds complete adjuvant driven model of allergic asthma; assay: Total and differential cell counts in BALF, HDM asthma model (Example 2); format: in vivo, BALB/c mice; details: dexamethasone orally 1 mg/kg BID day 14; 48 hours post challenge
Protocol: Female 7-10 weeks old BALB/c mice were randomly allocated into 7 study groups one day prior to study start and subcutaneously (SC) sensitized to house dust mite (100 μg HDM in 200 μL saline plus Freunds complete adjuvant in 0.9% saline). Mice were then intranasally (IN) challenged with HDM on day 14 (HDM 25 μg in 50 μL of saline). […] The initial dose was administered 60 minutes prior to challenge, and the subsequent doses approximately 6 hours apart. Airway inflammation: At 48 hours post challenge, bronchoalveolar lavage was performed washing the lungs with 3 volumes of cold PBS (0.4; 0.3 and 0.3 mL, total 1 mL). Total and differential leucocyte cell counts were determined on an automated haematological analyser Sysmex XT-2000iV.

[3] = test system: microbiota of the intestine; assay: 16S microbiota analysis, prophylactic defensin treatment in high fat diet model (Example 10); format: in vivo, mice
Source text: Mice were housed in trios, 4 cages per group. Feed intake was registered daily just before lights were turned off at […]. Individual mice were subjected to experimental procedures in altered order both group and cage wise. Mice were kept at room temperature under a 12-hour light/dark cycle at SPF standard conditions. The treatment regime is described in FIG. 38. Mice were fed either a high fat diet (HFD) or a low fat (LF) control diet. The HFD contained 4 subgroups; 1 hBD2, 1 HD5, 1 hBD2/HD5 and 1 standard HFD without supplementation of defensins. Defensin concentration was 1.2 mg hBD2 per kg mouse per day. HD5 was given in equimolar concentration to hBD2. […] Microbial analyses were carried out to study the microbiota of the intestine. Longitudinal 16S characterization was conducted on 4 paired samples from 60 mice, 240 samples in total. Each mouse was sampled prior to diet change, 1 week post diet change, 4 weeks post diet change and at termination, thus ensuring a thorough characterization of the faecal microbiota as a result of defensin treatment.

[4] = test system: microbiota of the intestine; assay: 16S microbiota analysis, interventional defensin treatment in diet-induced obese mice (Example 11); format: in vivo; details: intervention
Source text: The experiment elucidates the effect of hBD2 and HD5 on the microbiota in diet-induced obese mice. A run-in period of 13 weeks where mice were fed a very HFD (60% energy from fat) preceded the intervention. Only mice meeting the criteria of a minimum of 12 gram weight gain (approximately 50% of initial bodyweight) during the run-in period were included in the final analyses. […] They were exposed to all experimental tests, but excluded from the analyses.
Before the intervention all mice were MR scanned. Cages of mice were allocated to experimental groups based on their fat mass. All subsequent measures were paired with data from the same mouse before the intervention. A LFD (low fat diet) reference group was running in parallel. As controls for the intervention 2 additional groups were included: 1 very HFD and 1 LFD. Experimental mice stayed on the very HFD during the intervention. The mice were on the experimental diet for 10 weeks. They were co-housed throughout the experiment, 4 mice per cage, 3 cages per group. All tests ran over 3 days, 1 cage per group per day.
Microbial analyses were carried out to study the microbiota of the intestine. Longitudinal 16S characterization was conducted on 4 paired samples from 60 mice, 240 samples in total. Each mouse was sampled prior to diet change, 1 week post diet change, 4 weeks post diet change and at termination, thus ensuring a thorough characterization of the faecal microbiota as a result of defensin treatment.

Compound: C[C@]12C=CC(=O)C=C1CC[C@@H]1[C@@H]2[C@@H](O)C[C@@]2(C)[C@H]1CC[C@]2(O)C(=O)CO [Pred, Prednisolone]
- histological injury, proximal part of the colon [1]: failed to significantly reduce
- DAI ([1]; day 9, p<0.05): significant inhibition
- histological injury, distal colon ([1]; p<0.01): did reduce

Compound: C[C@@H]1C[C@H]2[C@@H]3CCC4=CC(=O)C=C[C@]4(C)[C@@]3(F)[C@@H](O)C[C@]2(C)[C@@]1(O)C(=O)CO [Dexamethasone, reference compound]
- neutrophil count in BALF [2]: failed to inhibit

Compound: human intestinal alpha defensin 5 (ATCYCRTGRCATRESLSGVCEISGRLYRLCCR; listed as Homo sapiens) [HD5]
- effect on microbial presence / microbial abundance ([3]; 1.2 mg hBD2 per kg per day in feed, HD5 equimolar, combination 50% + 50%): affected primarily the microbial abundance
- abundance of Allobaculum in the small intestine ([3]; prophylaxis, p<0.02): statistically significant increase
- abundance of Alloprevotella in the colon ([4]; HD5 p<0.02): increased the abundance of Alloprevotella statistically significantly
- relative abundance of Bifidobacteriaceae in the small intestine ([4]; hBD2 p<0.0001): trend towards HD5 increasing the abundance
